Experimental data: PMC12390925, “Metabolomics analysis of SNAT2-deficient cells: Implications for the discovery of selective small-molecule inhibitors of an amino acid transporter” (The Journal of Biological Chemistry, 2025)
One block for each molecule: values may come before it.

Legend:
[1] = molecular target: T1, sodium-coupled neutral amino acid transporter 2 (SNAT2/SLC38A2) (Homo sapiens, UniProt Q96QD8); test: inhibition of SNAT2-dependent MeAIB uptake in cells (GC-MS); assay type: cell-based
T1 construct: dox-inducible sgRNA-resistant human SLC38A2 cDNA in Slc38a2-KO mouse HY15549 cells
T1 sequence (Q96QD8 1-506): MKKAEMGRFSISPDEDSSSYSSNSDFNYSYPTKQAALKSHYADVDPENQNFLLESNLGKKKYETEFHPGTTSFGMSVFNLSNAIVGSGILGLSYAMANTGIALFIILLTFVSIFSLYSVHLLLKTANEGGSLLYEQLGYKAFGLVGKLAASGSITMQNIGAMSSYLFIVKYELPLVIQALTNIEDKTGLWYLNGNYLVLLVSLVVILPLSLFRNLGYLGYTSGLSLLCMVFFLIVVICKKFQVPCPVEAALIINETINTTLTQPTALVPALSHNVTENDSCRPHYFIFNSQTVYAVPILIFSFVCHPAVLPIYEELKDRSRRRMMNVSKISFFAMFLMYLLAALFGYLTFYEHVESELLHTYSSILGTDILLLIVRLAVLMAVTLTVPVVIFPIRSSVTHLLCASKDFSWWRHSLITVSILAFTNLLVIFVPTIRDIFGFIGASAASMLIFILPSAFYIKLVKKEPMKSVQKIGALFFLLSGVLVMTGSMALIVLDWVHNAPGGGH

[2] = molecular target: T1, sodium-coupled neutral amino acid transporter 2 (SNAT2/SLC38A2); test: GC-MS cell uptake assay, SNAT2-expressing vs SNAT2-KO cells (KM); assay type: cell-based
[3] = substrate: CNC(C)(C)C(=O)O; test: GC-MS cell uptake assay, SNAT1-overexpressing vs empty vector cells (KM); assay type: cell-based, Homo sapiens

Molecule: C[C@H](N)C(=O)O [L-alanine]
- IC50 [1]: 1900 µM

- Km [2]: ~300 µM
Molecule: CNC(C)(C)C(=O)O [MeAIB]

B1: SNAT1 (Homo sapiens) (protein)
chain: MMHFKSGLELTELQNMTVPEDDNISNDSNDFTEVENGQINSKFISDRESRRSLTNSHLEKKKCDEYIPGTTSLGMSVFNLSNAIMGSGILGLAFALANTGILLFLVLLTSVTLLSIYSINLLLICSKETGCMVYEKLGEQVFGTTGKFVIFGATSLQNTGAMLSYLFIVKNELPSAIKFLMGKEETFSAWYVDGRVLVVIVTFGIILPLCLLKNLGYLGYTSGFSLSCMVFFLIVVIYKKFQIPCIVPELNSTISANSTNADTCTPKYVTFNSKTVYALPTIAFAFVCHPSVLPIYSELKDRSQKKMQMVSNISFFAMFVMYFLTAIFGYLTFYDNVQSDLLHKYQSKDDILILTVRLAVIVAVILTVPVLFFTVRSSLFELAKKTKFNLCRHTVVTCILLVVINLLVIFIPSMKDIFGVVGVTSANMLIFILPSSLYLKITDQDGDKGTQRIWAALFLGLGVLFSLVSIPLVIYDWACSSSSDEGH
notes: CMV-driven human SLC38A1 cDNA stably expressed in HY15549 iSNAT2 cells
- Km [3]: 2900 µM
